Where two headings read alike, the source gives them in different places.
How the values were obtained:
[1] = tested on: serum cholesterol precursor molecule; conditions: ovarectomy study
Method: (§2) The effects on uterine weight and on serum cholesterol levels were studied in intact and ovarectomized adult female Sprague-Dawley rats. […] In the ovarectomy study the study drug was given p.o. at a daily dose of 0.1, 1 or 10 mg/kg for 4 weeks and comparison was made with the corresponding Z-isomer and estradiol (100 μg/kg). The serum cholesterol content was determined by an enzymatic method. In the ovarectomy study the serum cholesterol and cholesterol precursor molecule content was determined by gas-liquid chromatography.

[2] = tested on: uterine weight in ovarectomized adult female Sprague-Dawley rats; assay: Uterine weight in ovarectomized adult female rats; type: in vivo; conditions: for Relative uterine weight (control level taken as 1.00): ovarectomized rats
Method: as §2

serum cholesterol [3] = conditions: for Serum cholesterol content (control level taken as 1.00): ovarectomized rats; for Decrease of serum cholesterol level (maximum): ovarectomy study, over the doses tested
Method: as §2

serum cholesterol [4] = assay: Serum cholesterol in intact adult female rats; conditions: for Serum cholesterol content (control level taken as 1.00; mean ± SD, n = 3): intact rats, p.o. 3.17 mg/kg daily or equimolar dose, two weeks
Method: as §2

[5] = tested on: uterine weight in intact adult female Sprague-Dawley rats; assay: Uterine weight in intact adult female rats; conditions: p.o. 3.17 mg/kg daily or equimolar dose, two weeks
Method: as §2

Hep G2 cell cultures = conditions: for Cholesterol biosynthesis level (% of control): 2 hours, Hep G2; for Effect on cholesterol biosynthesis (in words): in vitro cell culture system, 0.01 to 10 micromolar
Method: The effects on cholesterol biosynthesis was studied in vitro in Hep G2 cell cultures using ^14C-acetate as cholesterol precursor. The test compound was added into the culture medium at concentrations from 0.01 to 10 micromolar. After 2 hours the culture was stopped and the newly synthesized cholesterol was quantitated by thin-layer chromatography. Comparison was made with the Z-isomer.

[6] = tested on: uterine weight in immature female Sprague-Dawley rats; conditions: for Average uterine weight (weight after mere E2-treatment was taken as 1.00): drug alone
Method: (§1) The estrogenic/antiestrogenic activity of the study drug was tested by measuring the effect on the uterine weight in immature (18 days old) female Sprague-Dawley rats. The compound was given p.o. in a PEG-solution for 3 days (n=5/group). At the same time the ability of the study drug to inhibit estrogen-induced increase in uterine weight was studied in rats given estradiol 50 μg/kg s.c. Comparison was made with the corresponding Z-isomer.

[7] = tested on: estrogen-induced increase in uterine weight
Method: as §1

[8] = 0.1 mg/kg p.o. for 3 days + E2 (estradiol 50 μg/kg s.c.)
[9] = 0.5 mg/kg p.o. for 3 days + E2 (estradiol 50 μg/kg s.c.)
[10] = 1 mg/kg p.o. for 3 days + E2 (estradiol 50 μg/kg s.c.)
[11] = 10 mg/kg p.o. for 3 days + E2 (estradiol 50 μg/kg s.c.)

SMILES | Effect on serum cholesterol precursor molecule level (in words) [1] | Relative uterine weight (control level taken as 1.00) ([2]; 0.1 mg/kg p.o. daily, 4 weeks) | Relative uterine weight (control level taken as 1.00) ([2]; 1 mg/kg p.o. daily, 4 weeks) | Relative uterine weight (control level taken as 1.00) ([2]; 10 mg/kg p.o. daily, 4 weeks) | Serum cholesterol content (control level taken as 1.00) (serum cholesterol [3]; 1 mg/kg p.o. daily, 4 weeks) | Serum cholesterol content (control level taken as 1.00) (serum cholesterol [3]; 10 mg/kg p.o. daily, 4 weeks) | Decrease of serum cholesterol level (maximum) (serum cholesterol [3]) | Serum cholesterol content (control level taken as 1.00; mean ± SD, n = 3) (serum cholesterol [4]) | Relative uterine weight (control level taken as 1.00; mean ± SD, n = 3) [5] | Cholesterol biosynthesis level (% of control) (Hep G2 cell cultures; 0.01 μM) | Cholesterol biosynthesis level (% of control) (Hep G2 cell cultures; 0.1 μM) | Cholesterol biosynthesis level (% of control) (Hep G2 cell cultures; 1 μM) | Cholesterol biosynthesis level (% of control) (Hep G2 cell cultures; 10 μM) | Effect on cholesterol biosynthesis (in words) (Hep G2 cell cultures) | Average uterine weight (weight after mere E2-treatment was taken as 1.00) ([6]; 0.1 mg/kg p.o. for 3 days) | Average uterine weight (weight after mere E2-treatment was taken as 1.00) ([6]; 0.5 mg/kg p.o. for 3 days) | Average uterine weight (weight after mere E2-treatment was taken as 1.00) ([6]; 1 mg/kg p.o. for 3 days) | Average uterine weight (weight after mere E2-treatment was taken as 1.00) ([6]; 10 mg/kg p.o. for 3 days) | Average uterine weight (weight after mere E2-treatment was taken as 1.00) [7, 8] | Average uterine weight (weight after mere E2-treatment was taken as 1.00) [7, 9] | other results
OCCOc1ccc(/C(=C(/CCCl)c2ccccc2)c2ccccc2)cc1 [1271a (Z), Z-2-[4-(4-chloro-1,2-diphenyl-but-1-enyl)phenoxy]ethanol] | not | 1.22 | 1.78 | 2.04 | 0.96 | 0.66 | up to 34% | 0.65 ± 0.10 | 0.75 ± 0.06 | 143 % of control | 127 % of control | 129 % of control | 132 % of control | had an opposite effect | 0.27 | 0.43 | 0.53 | 0.75 | 1.18 | 1.11 | Serum cholesterol content (control level taken as 1.00) (serum cholesterol [3]; 0.5 mg/kg): 0.90; Serum cholesterol content (control level taken as 1.00) (serum cholesterol [3]; 5 mg/kg): 0.89; Efficacy in decreasing serum cholesterol level (in words) (serum cholesterol [4]; intact adult female rats, compared with the other drugs): less effective; Average uterine weight (weight after mere E2-treatment was taken as 1.00) [7, 10]: 0.91; Average uterine weight (weight after mere E2-treatment was taken as 1.00) [7, 11]: 0.91
OCCOc1ccc(/C(=C(\CCCl)c2ccccc2)c2ccccc2)cc1 [1271b (E), E-2-[4-(4-chloro-1,2-diphenyl-but-1-enyl)phenoxy]ethanol] | increased slightly | 1.54 | 1.50 | 1.53 | 0.62 | 0.23 | up to 77% | 0.43 ± 0.05 | 0.85 ± 0.07 | 89 % of control | 90 % of control | 89 % of control | 84 % of control | inhibited slightly cholesterol biosynthesis | 0.37 | 0.45 | 0.44 | 0.75 | 0.81 | 0.82 | Increase of relative uterus weight ([2]; ovarectomy study, 0.1, 1 or 10 mg/kg p.o., 4 weeks): 1.5 fold; Serum cholesterol content (control level taken as 1.00) (serum cholesterol [3]; 0.1 mg/kg p.o. daily, 4 weeks): 0.92; Estrogenic and antiestrogenic effect compared to the corresponding Z-isomer (in words) ([6]; immature rat uterine weight test): approximately equal estrogenic and antiestrogenic effect; Average uterine weight (weight after mere E2-treatment was taken as 1.00) [7, 10]: 0.57; Average uterine weight (weight after mere E2-treatment was taken as 1.00) [7, 11]: 0.83
C[C@]12CC[C@@H]3c4ccc(O)cc4CC[C@H]3[C@@H]1CC[C@@H]2O [Estradiol] | – | – | – | – | – | – | – | 0.48 ± 0.09 | 1.29 ± 0.06 | – | – | – | – | – | – | – | – | – | – | – | Increase of relative uterus weight ([2]; ovarectomy study, estradiol 100 μg/kg): 3.3 fold
O=C(c1ccc(OCCN2CCCCC2)cc1)c1c(-c2ccc(O)cc2)sc2cc(O)ccc12 [Raloxifene] | – | – | – | – | – | – | – | 0.48 ± 0.09 | 0.77 ± 0.21 | – | – | – | – | – | – | – | – | – | – | – | –
CN(C)CCOc1ccc(/C(=C(/CCCl)c2ccccc2)c2ccccc2)cc1 [Toremifene (E)] | – | – | – | – | – | – | – | 0.40 ± 0.18 | 1.09 ± 0.10 | – | – | – | – | – | – | – | – | – | – | – | –

— patent US6395785B1 (Orion Corporation, priority 1998, dated 2002)
